Experimental data published in US20230240297A1, “SELECTIVE HERBICIDES BASED ON SUBSTITUTED ISOXAZOLIN CARBOXAMIDES AND CYPROSULFAMIDE” (Bayer Aktiengesellschaft, priority 2020, published 2023).

Columns and labels:
ZEAMA Sileno [1] = test: Tank-mix; post-emergence, crop damage with and without safener; assay type: in vivo, maize; settings: for HER effect + SAF / HER effect: Final assessment; for HER effect: no safener
Method: Seeds of crops (spring wheat, TRZAS; spring barley, HORVS; maize, ZEAMA) were placed in sandy loam soil in peat pots, covered with soil and cultivated in a greenhouse under good growth conditions. Two to three weeks after sowing, the test plants were treated at the 1 to 3-leaf stage. The herbicide/safener active compound combinations according to the invention, formulated as wettable powders or emulsion concentrates, and, in parallel tests, the correspondingly formulated individual active compounds were sprayed onto the green parts of the plants in various dosages using an amount of water of 300 1/ha (converted).
The pots were returned under good growing conditions in a glasshouse and a visual assessment of herbicidal effects was made at intervals from 1 to 3 weeks after herbicide application (DAT = days after treatment). Assessment was on a percentage basis in comparison with untreated control plants (0% = no injury, 100% = complete kill).

ZEAMA Sileno [2] = test: Seed treatment with safener; post-emergence herbicide application; assay type: in vivo, maize; set-up: Reduction [Difference]: scale not given here; settings: Final assessment; for Reduction [%] / Reduction [Difference]: Cyprosulfamide 0.5 g a.i./kg seed; for Reduction [Difference]: damage without safener - damage with safener; for HER effect + SAF (crop damage with safener): Cyprosulfamide seed treatment 0.5 g a.i./kg seed; for HER effect (crop damage, herbicide without safener): no safener
Method: For the safener seed treatment, sufficient seeds of the respective crops (spring wheat, TRZAS; spring barley, HORVS; maize, ZEAMA) were weighed into screw top glass bottles approximately twice the volume of the seeds.
The specified safeners, formulated as wettable powder (WP) were weighed out so that the specified rates (g a.i./kg seed) would be obtained, dissolved in water (1 ml water per 10 g of seeds), and added to the seeds to produce a slurry.
The bottles were capped and then placed in an overhead shaker (set at medium speed for ca. 60 minutes) so that the seeds were evenly coated with the slurry. The bottles were uncapped and the seeds were either placed on paper and dried for an interval of 3-4 hours prior to sowing, or directly sown. Seeds were placed in sandy loam soil in pots of a diameter of 7-8 cm, covered with soil, and cultivated in a greenhouse under good growth conditions.
Post-emergence application of the specified herbicides was done when the plants had reached growth stage BBCH11-13, on two sets of plants:
a) seed treatment with safener, as described above b) no safener treatment
The herbicides were formulated as WP and sprayed onto the green parts of the plants as an aqueous suspension at an equivalent water application rate of 300 1/ha, with addition of wetting agent and adjuvants (e.g. Mero, 1.5 1/ha; ammonium sulphate, 2 kg/ha)
After application, the test plants were kept in the greenhouse under good growth conditions.
Values in the table below are mean values of at least 2 replicates.

[3] = HER 8 g a.i./ha, cyprosulfamide 50 g a.i./ha
[4] = HER 32 g a.i./ha, cyprosulfamide 100 g a.i./ha
[5] = HER dose 8 g a.i./ha + cyprosulfamide 50 g a.i./ha tank-mix
[6] = HER dose 32 g a.i./ha + cyprosulfamide 100 g a.i./ha tank-mix
[7] = HER 2 g a.i./ha, cyprosulfamide 50 g a.i./ha
[8] = HER 2 g a.i./ha, cyprosulfamide 50 g a.i./ha, damage without safener - damage with safener
[9] = HER dose 2 g a.i./ha + cyprosulfamide 50 g a.i./ha tank-mix
[10] = HER dose 2 g a.i./ha, 0% = no injury, 100% = complete kill

Row | SMILES | Reduction [%] (ZEAMA Sileno [1]; [3]) | Reduction [Difference] (ZEAMA Sileno [1]; [3]) | Reduction [%] (ZEAMA Sileno [1]; [4]) | Reduction [Difference] (ZEAMA Sileno [1]; [4]) | HER effect + SAF (ZEAMA Sileno [1]; [5]) | HER effect (ZEAMA Sileno [1]; HER dose 8 g a.i./ha) | HER effect + SAF (ZEAMA Sileno [1]; [6]) | HER effect (ZEAMA Sileno [1]; HER dose 32 g a.i./ha) | Reduction [%] (ZEAMA Sileno [2]; HER dose 2 g a.i./ha) | Reduction [Difference] (ZEAMA Sileno [2]; HER dose 2 g a.i./ha) | HER effect + SAF (crop damage with safener) (ZEAMA Sileno [2]; HER dose 2 g a.i./ha) | HER effect (crop damage, herbicide without safener) (ZEAMA Sileno [2]; HER dose 2 g a.i./ha) | Reduction [%] (ZEAMA Sileno [2]; HER dose 8 g a.i./ha) | Reduction [Difference] (ZEAMA Sileno [2]; HER dose 8 g a.i./ha) | HER effect + SAF (crop damage with safener) (ZEAMA Sileno [2]; HER dose 8 g a.i./ha) | HER effect (crop damage, herbicide without safener) (ZEAMA Sileno [2]; HER dose 8 g a.i./ha) | Reduction [%] (ZEAMA Sileno [2]; HER dose 32 g a.i./ha) | Reduction [Difference] (ZEAMA Sileno [2]; HER dose 32 g a.i./ha) | HER effect + SAF (crop damage with safener) (ZEAMA Sileno [2]; HER dose 32 g a.i./ha) | HER effect (crop damage, herbicide without safener) (ZEAMA Sileno [2]; HER dose 32 g a.i./ha) | further results
1 | COCCOC(=O)C1C=CC(NC(=O)C2(C)CC(c3cc(Cl)cc(C#N)c3)=NO2)C1 (centres unmarked) [Example 1.5] | 55% | 47 | 50% | 48 | 38% | 85% | 48% | 96% | 100% | 23 | 0% | 23% | 88% | 75 | 10% | 85% | 79% | 76 | 20% | 96% | –
2 | COC(=O)C1(C)CC(NC(=O)C2(C(C)(F)F)CC(c3cc(F)cc(F)c3)=NO2)CO1 (mixture of isomers) [Example 1.94] | 89% | 81 | 76% | 71 | 10% | 91% | 23% | 94% | – | – | – | – | 100% | 91 | 0% | 91% | 93% | 87 | 7% | 94% | –
3 | C=CC1(C(=O)NC2COC(C(=O)OC)C2)CC(c2cc(F)cc(F)c2)=NO1 (centres unmarked) [Example 1.70] | 21% | 20 | 41% | 40 | 77% | 97% | 58% | 98% | 80% | 70 | 18% | 88% | 77% | 75 | 22% | 97% | 67% | 66 | 32% | 98% | Reduction [%] (ZEAMA Sileno [1]; [7]): 77%; Reduction [Difference] (ZEAMA Sileno [1]; [8]): 68; HER effect + SAF (ZEAMA Sileno [1]; [9]): 20%; HER effect (ZEAMA Sileno [1]; [10]): 88%
4 | COC(=O)C1C=CC(NC(=O)C2(C(F)(F)F)CC(c3cccc(F)c3)=NO2)C1 (centres unmarked) [Example 1.18] | 66% | 62 | 72% | 70 | 32% | 94% | 27% | 97% | – | – | – | – | 89% | 84 | 10% | 94% | 79% | 77 | 20% | 97% | –
5 | CCOC(=O)C1=CCC(NC(=O)C2(C)CC(c3cccc(F)c3)=NO2)C1 (mixture of isomers) [Example 1.59] | 100% | 20 | 90% | 60 | 0% | 20% | 7% | 67% | – | – | – | – | 100% | 20 | 0% | 20% | 85% | 57 | 10% | 67% | –
6 | C=CCOC(=O)C1CC(NC(=O)C2(C=C)CC(c3cc(F)cc(F)c3)=NO2)CO1 (mixture of isomers) [Example 1.83] | 73% | 45 | 73% | 62 | 17% | 62% | 23% | 85% | – | – | – | – | 100% | 62 | 0% | 62% | 96% | 82 | 3% | 85% | –
7 | CC1(C(=O)NC2CC=C(C(=O)NS(C)(=O)=O)C2)CC(c2cc(F)cc(F)c2)=NO1 (mixture of isomers) [Example 1.61] | – | – | – | – | – | – | – | – | – | – | – | – | 57% | 47 | 35% | 82% | 44% | 40 | 50% | 90% | –
8 | C=CC1(C(=O)NC2COC(C(=O)OCCOC)C2)CC(c2cc(F)cc(F)c2)=NO1 (mixture of isomers) [Example 1.66] | 76% | 73 | 54% | 52 | 23% | 96% | 45% | 97% | 100% | 33 | 0% | 33% | 100% | 96 | 0% | 96% | 97% | 94 | 3% | 97% | Reduction [%] (ZEAMA Sileno [1]; [7]): 79%; Reduction [Difference] (ZEAMA Sileno [1]; [8]): 26; HER effect + SAF (ZEAMA Sileno [1]; [9]): 7%; HER effect (ZEAMA Sileno [1]; [10]): 33%
9 | C=CC1(C(=O)NC2COC(C(=O)OCCCl)C2)CC(c2cc(F)cc(F)c2)=NO1 (mixture of isomers) [Example 1.82] | – | – | – | – | – | – | – | – | 100% | 28 | 0% | 28% | 89% | 83 | 10% | 93% | 84% | 77 | 15% | 92% | –
